Test results from PubChem BioAssay AID2060508 (Molecular Pharmacology Branch, DTP, NCI, 2025).
Values belong to the molecule of their own block, whether it stands above or below them.

Test system: 454973-116-R2-J3-PDC spheroids, viability, % test/control
Assay: Anticancer human tumor 454973-116-R2-J3-PDC patient-derived pancreatic carcinoma cell line growth inhibition [GQUAD]
Details: spheroids with HUVEC and MSC; for IC50: curve of first compound; for viability, T/C: stronger effect = lower value
Text: DNA G-quadruplex Stabilizer Agents in Combinations in Complex Spheroids
A high-throughput screen of multi-cell type tumor spheroids was designed to identify active combinations of DNA G-quadruplex stabilizer agents and targeted small molecules. Complex spheroids include a stromal component modeled by human endothelial cells (HUVEC) and fibroblasts modeled by human mesenchymal stem cells (MSCs). The concentration ranges selected for each drug and investigational agent were based upon clinically achievable concentrations if the clinical Cmax of the agent was known.
Compounds. The drugs and investigational agents: pidnarulex (CX-5461; NSC782164), APTO-253 (NSC789042), BRACO-19 (NSC847499), peposertib (NSC802822), ceralasertib (NSC780249), elimusertib (NSC800525), camonsertib (NSC841442), AZD-1390 (NSC803789), olaparib (NSC753686), talazoparib (NSC767125), ART-558 (NSC835418), sotorasib (NSC818433), MRTX-1133 (NSC836407), SN-38 (NSC673596), topotecan (NSC609699), etoposide (NSC141540), doxorubicin (NSC123127), gemcitabine (NSC613327), 5-fluorouracil (NSC19893), paclitaxel (NSC125973), vemurafenib (NSC761431), panobinostat (NSC761190), R-306465 (JNJ-16241199; NSC773264), adavosertib (NSC754352), TP-3654 (NSC805149), carboplatin (NSC241240), KSQ-4279 (NSC840948), and staurosporine (NSC755774) were obtained from the National Cancer Institute (NCI) Developmental Therapeutics Program Chemical Repository (34). The FDA-approved anticancer drug set is available from the NCI Developmental Therapeutics Program. […] The stock solutions were prepared in dimethyl sulfoxide (DMSO, Sigma-Aldrich, St. Louis, MO, cat. D2650) at 800-fold the tested concentration and stored at -70 degrees C prior to their use. All drugs and investigational agents were tested over a range starting from a high concentration at or near the clinical Cmax and decreasing in half-log increments. If the clinical Cmax for an agent had not been determined, the highest concentration tested was 10 microM.
2.3 Cell Culture. All cells were maintained in an incubator at 37 degrees C and 5% CO2 with 95% humidity. The PDC lines were cultured according to standard operating procedures established by the NCI PDMR. All PDCs were thawed and cultured in Matrigel-coated flasks prepared with a working solution of 1X Ham's F-12 nutrient mix, without supplementation (Invitrogen, cat. 11765054), 100 U/mL penicillin-streptomycin (Invitrogen, cat. 15140122), and 2.5% Matrigel (Corning Inc., cat. 354248) for the first three passages. The 857933-349-R-J2-PDC line was cultured in 6C/Colon 1B media, which includes advanced DMEM/F-12 (Thermo Fisher Scientific, cat. 12634028), 10 mM HEPES (Thermo Fisher Scientific, cat. 15630080), 1X GlutaMAX supplement (Thermo Fisher Scientific, cat. 35050061), 0.1 mg/mL primocin (InvivoGen, cat. ant-pm-2), 10% defined fetal bovine serum, heat inactivated (HyClone Laboratories Inc., cat. SH30070.03HI), 50% L-WRN conditioned media (ATCC, cat. CRL-3276), 1.25 mM N-Acetyl-L-cysteine (Sigma-Aldrich, cat. A9165), 10 mM nicotinamide (Sigma-Aldrich, cat. N0636), 1X B-27 supplement (Thermo Fisher Scientific, cat. 17504044), 1X N-2 supplement (Thermo Fisher Scientific, cat. 17502048), 10 microM Y-27632 dihydrochloride (Tocris Bioscience, cat. 1254), and 50 ng/mL human EGF recombinant protein (Thermo Fisher Scientific, cat. PHG0311). The 485176-168-R4-J1-PDC line was cultured in Panc media, which includes all 6C/Colon 1B media components plus 100 ng/mL human FGF-10 (Thermo Fisher Scientific, cat. 100-26), 500 nM SB-431542 (Selleckchem, cat. S1067), and gastrin (Tocris, cat. 3006).
[…]

[1] = second compound 0.0316 µM, first compound 0.0316 µM
[2] = second compound 0.0316 µM, first compound 0.1 µM
[3] = second compound 0.0316 µM, first compound 0.316 µM
[4] = second compound 0.0316 µM, first compound 1 µM
[5] = second compound 0.0316 µM, first compound 3.16 µM
[6] = second compound 0.0316 µM, first compound 10 µM
[7] = second compound 0.1 µM, first compound 0.0316 µM
[8] = second compound 0.1 µM, first compound 0.1 µM
[9] = second compound 0.1 µM, first compound 0.316 µM
[10] = second compound 0.1 µM, first compound 1 µM
[11] = second compound 0.1 µM, first compound 3.16 µM
[12] = second compound 0.1 µM, first compound 10 µM
[13] = second compound 0.316 µM, first compound 0.0316 µM
[14] = second compound 0.316 µM, first compound 0.1 µM
[15] = second compound 0.316 µM, first compound 0.316 µM
[16] = second compound 0.316 µM, first compound 1 µM
[17] = second compound 0.316 µM, first compound 3.16 µM
[18] = second compound 0.316 µM, first compound 10 µM
[19] = second compound 1 µM, first compound 0.0316 µM
[20] = second compound 1 µM, first compound 0.1 µM
[21] = second compound 1 µM, first compound 0.316 µM
[22] = second compound 1 µM, first compound 1 µM
[23] = second compound 1 µM, first compound 3.16 µM
[24] = second compound 1 µM, first compound 10 µM
[25] = second compound 3.16 µM, first compound 0.0316 µM
[26] = second compound 3.16 µM, first compound 0.1 µM
[27] = second compound 3.16 µM, first compound 0.316 µM
[28] = second compound 3.16 µM, first compound 1 µM
[29] = second compound 3.16 µM, first compound 3.16 µM
[30] = second compound 3.16 µM, first compound 10 µM
[31] = second compound 10 µM, first compound 0.0316 µM
[32] = second compound 10 µM, first compound 0.1 µM
[33] = second compound 10 µM, first compound 0.316 µM
[34] = second compound 10 µM, first compound 1 µM
[35] = second compound 10 µM, first compound 3.16 µM
[36] = second compound 10 µM, first compound 10 µM
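Note: spheroids exposed to compounds for seven days.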

Compound: C=CCn1c(=O)c2cnc(Nc3ccc(N4CCN(C)CC4)cc3)nc2n1-c1cccc(C(C)(C)O)n1 + Cc1[nH]c2ccc(F)cc2c1-c1nc2c3cccnc3c3ncccc3c2[nH]1
IC50 (second compound 0.0316 µM): 364 nM | IC50 (second compound 0.1 µM): 478 nM | IC50 (second compound 0.316 µM): 401 nM | IC50 (second compound 1 µM): 433 nM | IC50 (second compound 3.16 µM): 335 nM | IC50 (second compound 10 µM): 339 nM | viability, T/C [1]: 124% | viability, T/C [2]: 92.8% | viability, T/C [3]: 60.4% | viability, T/C [4]: 15.3% | viability, T/C [5]: 7.69% | viability, T/C [6]: 10.2% | viability, T/C [7]: 101% | viability, T/C [8]: 95.5% | viability, T/C [9]: 69.8% | viability, T/C [10]: 15% | viability, T/C [11]: 6.68% | viability, T/C [12]: 11.6% | viability, T/C [13]: 105% | viability, T/C [14]: 99% | viability, T/C [15]: 58.7% | viability, T/C [16]: 16.7% | viability, T/C [17]: 7.33% | viability, T/C [18]: 12.1% | viability, T/C [19]: 111% | viability, T/C [20]: 96.2% | viability, T/C [21]: 63.4% | viability, T/C [22]: 18.3% | viability, T/C [23]: 6.95% | viability, T/C [24]: 12.4% | viability, T/C [25]: 101% | viability, T/C [26]: 98.6% | viability, T/C [27]: 51.8% | viability, T/C [28]: 14.2% | viability, T/C [29]: 7.78% | viability, T/C [30]: 12.1% | viability, T/C [31]: 100% | viability, T/C [32]: 78.4% | viability, T/C [33]: 57.6% | viability, T/C [34]: 14.1% | viability, T/C [35]: 7.95% | viability, T/C [36]: 12.3%

IC50 (second compound 0.0316 µM): > 10000 nM | IC50 (second compound 0.1 µM): < 31.6 nM | IC50 (second compound 0.316 µM): < 31.6 nM | IC50 (second compound 1 µM): 39.7 nM | IC50 (second compound 3.16 µM): > 10000 nM | IC50 (second compound 10 µM): < 31.6 nM
Compound: CC(C)n1c(=O)n(C)c2cnc3cc(F)c(-c4ccc(OCCCN5CCCCC5)nc4)cc3c21 + Cc1cnc(CNC(=O)c2c(=O)c3ccc(N4CCCN(C)CC4)nc3n3c2sc2ccccc23)cn1
viability, T/C [1]: 76.6% | viability, T/C [2]: 53.5% | viability, T/C [3]: 59.6% | viability, T/C [4]: 52.9% | viability, T/C [5]: 56.8% | viability, T/C [6]: 52.3% | viability, T/C [7]: 43% | viability, T/C [8]: 35.6% | viability, T/C [9]: 36.5% | viability, T/C [10]: 33.6% | viability, T/C [11]: 39.5% | viability, T/C [12]: 32.7% | viability, T/C [13]: 45.5% | viability, T/C [14]: 49% | viability, T/C [15]: 38.7% | viability, T/C [16]: 38.8% | viability, T/C [17]: 40.3% | viability, T/C [18]: 33.7% | viability, T/C [19]: 52.4% | viability, T/C [20]: 48.4% | viability, T/C [21]: 46.9% | viability, T/C [22]: 48.7% | viability, T/C [23]: 51.8% | viability, T/C [24]: 48.2% | viability, T/C [25]: 53.7% | viability, T/C [26]: 65.8% | viability, T/C [27]: 56.1% | viability, T/C [28]: 57.4% | viability, T/C [29]: 58.3% | viability, T/C [30]: 44.4% | viability, T/C [31]: 0.28% | viability, T/C [32]: 0.31% | viability, T/C [33]: 14% | viability, T/C [34]: 0.33% | viability, T/C [35]: 0.3% | viability, T/C [36]: 0.25%
